Consider eleven substances from patent US7276337B2, “Compositions and methods for visual ribonuclease detection assays” (Integrated DNA Technologies, Inc., priority 2000, dated 2007).

The target in one data set is T1, Ribonuclease T1 (Aspergillus oryzae, UniProt P00651).
T1 sequence (P00651 27-130): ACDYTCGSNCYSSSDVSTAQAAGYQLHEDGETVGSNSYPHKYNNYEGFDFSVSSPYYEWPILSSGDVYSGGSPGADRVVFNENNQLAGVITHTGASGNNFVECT
The experiment in a line: Visual detection ribonuclease assay, cleavage of Substrate ODN by RNase T1. In kind it is biochemical. Further details: key to Sensitivity of Substrate ODN to Ribonuclease T1, relative signal intensity: +++ = maximum intensity; ++ = moderate intensity; + = faint but above background; − = negative (identical to background). To be noted: visual inspection, UV excitation, Substrate 500 nM, 37° C. 60 minutes. The protocol: (§1) Nuclease assays were conducted using the method of the invention with both visual and fluorometric detection methods. Substrates were individually mixed in 1× Assay Buffer at a concentration of 50 nM (50 pmoles oligonucleotide in 1 ml volume) for fluorometric detection or at a concentration of 500 nM (50 pmoles of oligonucleotide in 100 ul volume) for visual detection. Test nucleases were added to respective Assay Mixes beginning at 1 ul stock reagent and proceeding with a 1:10 serial dilution until undetectable. Reaction mixes were incubated at 37° C. for 60 minutes. Fluorometric detection was performed as outlined in Example 2. Visual detection was performed as outlined in Example 1.
Table 7: Sensitivity of different Substrate ODNs to Ribonuclease T1. A series of Substrate ODNs were synthesized and tested for sensitivity to RNase T1 degradation. Stock enzyme was serial diluted to achieve final concentrations of 0.001 units/ml, 0.0001 units/ml, and 0.00001 units/ml as indicated. Reactions were examined for fluorescence emission by visual inspection using an ultraviolet (UV) light source for excitation. Results were scored as +++, ++, +, or − based on relative signal intensity.
(§2) It is commonly accepted that fluorometry provides for high sensitivity. To be useful, the visual method must also offer high sensitivity. Assays were conducted using the method of the invention with visual detection. Substrate SEQ ID NO:30 was mixed in 1× Assay Buffer at a concentration of 500 nM (50 pmoles ODN in 100 ul volume) in thin-walled, UV transparent tubes. […] Dilutions of stock RNase A, RNase 1, and RNase T1 were made in water. Undiluted and diluted nuclease (1 ul) was added to respective 100 ul Assay Mixes resulting in final dilution factors of 10^−2, 10^−3, 10^−4, 10^−5, 10^−6, and 10^−7. Assays were incubated at room temperature for 10 minutes and visually examined for fluorescence emission with UV excitation. […] The experiment took about 30 minutes to perform, including 15 minutes to set-up serial dilutions, 10 minutes incubation, and 5 minutes to visualize and photograph. Thus the method of the invention allows for a rapid, simple, and convenient visual assay for the presence of ribonuclease activity.

Another data set concerns the target T2, Ribonuclease A (Bos taurus, UniProt P61823).
T2 sequence (P61823 27-150): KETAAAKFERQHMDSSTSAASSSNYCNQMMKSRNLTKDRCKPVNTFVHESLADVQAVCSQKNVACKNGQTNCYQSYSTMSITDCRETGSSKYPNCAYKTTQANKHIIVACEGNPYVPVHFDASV
The experiment in a line: Visual detection ribonuclease assay, cleavage of Substrate ODN by RNase A. The format is biochemical, mammalian. Also noted: key to Sensitivity of Substrate ODN to Ribonuclease A, relative signal intensity: +++ = maximum intensity; ++ = moderate intensity; + = faint but above background; − = negative (identical to background). To be noted: visual inspection, UV excitation, Substrate 500 nM, 37° C. 60 minutes. The protocol:
Nuclease assays were conducted using the methods of the invention. SEQ ID NO:2 and SEQ ID NO:30 oligonucleotides were individually mixed in 1× Assay Buffer at a concentration of 500 nM (50 pmoles ODN in 100 ul volume) in thin-walled, UV transparent microtubes. RNase A (1 ul, diluted to 0;1 ug/ul) was added to the respective Assay Mixes. […] Assays were set up directly in microtubes as follows:
Assay Mixes were incubated at room temperature for 10 minutes. Assays were visually examined for fluorescence emission directly in the assay tubes without further manipulation. Tubes were suspended above an ultraviolet light source, visually inspected, and photographed using a digital camera. […] The “positive” and “control” reactions appeared markedly different and were easily distinguished. […] The “positive” and “control” reactions were not markedly different to visual inspection.
as §1
Table 6: Sensitivity of different Substrate ODNs to Ribonuclease A. A series of Substrate ODNs were synthesized and tested for sensitivity to RNase A degradation. Stock enzyme was serial diluted to achieve final concentrations of 1 ng/ml, 100 pg/ml, and 10 pg/ml as indicated. Reactions were examined for fluorescence emission by visual inspection using an ultraviolet (UV) light source for excitation. Results were scored as +++, ++, +, or − based on relative signal intensity.
as §2

Data set [1] deals with Substrate oligonucleotide SEQ ID NO:30. The experiment in a line: RNase testing of commercially obtained reagents, visual detection. The format is biochemical. Also noted: key: +++ = maximum intensity; ++ = moderate intensity; + = faint but above background; − = negative (identical to background). To be noted: reagent diluted 1:10 with Assay Buffer, 50 pmoles Substrate SEQ ID NO:30, 60 minutes at 37° C., UV. As for the experimental part:
Enzymes were obtained from New England Biolabs (NEB) or Ambion as indicated. Test sample (10 ul) was mixed with 1× buffer (90 ul) for a final volume of 100 ul with 50 pmoles of Substrate SEQ ID NO:30 in 0.5 ml RNase-free microtubes. Assay Mixes were incubated 60 minutes at 37° C. and visually examined under UV excitation for fluorescence emission. After scoring for results, 1 ul (1 ug) of RNase A was added to each tube. The Assay was incubated an additional 5 minutes at 37° C. and re-scored. The addition of RNase A represents a control for the absence of an Assay inhibitor and validates negative results. The “plus RNase A” control was omitted whenever the primary assay was already positive.
Table 9: RNase testing of commercially available reagents. A series of commercially available reagents were diluted 1:10 with Assay Buffer to a final volume of 100 ul. An RNase detection assay was performed using the method of the invention with Substrate oligonucleotide SEQ ID NO:30. Reactions were examined for fluorescence emission by visual inspection using an ultraviolet (UV) light source for excitation. Results were scored as +++, ++, +, or − based on relative signal intensity. As a control, RNase A (1 ug) was added to negative reactions and the Assay was re-scored. ND=not done.

As for “5′ Fluorescein-AcguA-Dabcyl 3′ (NACGUAN; 5' fluorescein and 3' Dabcyl labels, nucleotide chemistry not given here) [SEQ ID NO:15]”, the “Sensitivity of Substrate ODN to Ribonuclease T1, relative signal intensity” value with Ribonuclease T1 (RNase T1 10^−3 units/ml) was “+++”; in the data set with Ribonuclease T1 (RNase T1 10^−4 units/ml) it was “+”; with Ribonuclease T1 (RNase T1 10^−5 units/ml), “−”. Also, the “Sensitivity of Substrate ODN to Ribonuclease A, relative signal intensity” value with Ribonuclease A (RNase A 10 pg/ml) was “−”; in the data set with Ribonuclease A (RNase A 100 pg/ml), “+”; with Ribonuclease A (RNase A 1 ng/ml), “+++”.

As to “5′ Fluorescein-AcuaA-Dabcyl 3′ (NACUAAN; 5' fluorescein and 3' Dabcyl labels, nucleotide chemistry not given here) [SEQ ID NO:17]”, the “Sensitivity of Substrate ODN to Ribonuclease T1, relative signal intensity” value with Ribonuclease T1 (RNase T1 10^−3 units/ml), with Ribonuclease T1 (RNase T1 10^−4 units/ml) and with Ribonuclease T1 (RNase T1 10^−5 units/ml) was “−” each time. Further, the “Sensitivity of Substrate ODN to Ribonuclease A, relative signal intensity” value in the data set with Ribonuclease A (RNase A 10 pg/ml) is reported as “−”; in the data set with Ribonuclease A (RNase A 100 pg/ml), “+”; with Ribonuclease A (RNase A 1 ng/ml), “+++”.

Turning to “5′ Fluorescein-AgaAA-Dabcyl 3′ (NAGAAAN; 5' fluorescein and 3' Dabcyl labels, nucleotide chemistry not given here) [SEQ ID NO:9]”, the “Sensitivity of Substrate ODN to Ribonuclease T1, relative signal intensity” value with Ribonuclease T1 (RNase T1 10^−3 units/ml) was “+”; with Ribonuclease T1 (RNase T1 10^−4 units/ml), “+”; with Ribonuclease T1 (RNase T1 10^−5 units/ml) it was “−”. Moreover, the “Sensitivity of Substrate ODN to Ribonuclease A, relative signal intensity” value with Ribonuclease A (RNase A 10 pg/ml), in the data set with Ribonuclease A (RNase A 100 pg/ml) and with Ribonuclease A (RNase A 1 ng/ml) was “−” in each case.

Turning to “5′ Fluorescein-AgcuAA-Dabcyl 3′ (NAGCUAAN; 5' fluorescein and 3' Dabcyl labels, nucleotide chemistry not given here) [SEQ ID NO:11]”, the “Sensitivity of Substrate ODN to Ribonuclease T1, relative signal intensity” value in the data set with Ribonuclease T1 (RNase T1 10^−3 units/ml) was “+”; with Ribonuclease T1 (RNase T1 10^−4 units/ml) it was “−”; with Ribonuclease T1 (RNase T1 10^−5 units/ml), “−”. For the same substance, the “Sensitivity of Substrate ODN to Ribonuclease A, relative signal intensity” value was “−” in the data set with Ribonuclease A (RNase A 10 pg/ml), “−” with Ribonuclease A (RNase A 100 pg/ml) and “++” in the data set with Ribonuclease A (RNase A 1 ng/ml).

On to “5′ Fluorescein-AgcuaA-Dabcyl 3′ (NAGCUAAN; 5' fluorescein and 3' Dabcyl labels, nucleotide chemistry not given here) [SEQ ID NO:22]”, for which the “Sensitivity of Substrate ODN to Ribonuclease T1, relative signal intensity” value with Ribonuclease T1 (RNase T1 10^−3 units/ml) is listed as “+++”; with Ribonuclease T1 (RNase T1 10^−4 units/ml) it was “+”; with Ribonuclease T1 (RNase T1 10^−5 units/ml) it was “−”. In addition, the “Sensitivity of Substrate ODN to Ribonuclease A, relative signal intensity” value with Ribonuclease A (RNase A 10 pg/ml) is listed as “−”; with Ribonuclease A (RNase A 100 pg/ml), “++”; in the data set with Ribonuclease A (RNase A 1 ng/ml), “+++”.

For “5′ Fluorescein-AguAA-Dabcyl 3′ (NAGUAAN; 5' fluorescein and 3' Dabcyl labels, nucleotide chemistry not given here) [SEQ ID NO:7]”, the figures for the “Sensitivity of Substrate ODN to Ribonuclease T1, relative signal intensity” value with Ribonuclease T1 (RNase T1 10^−3 units/ml), in the data set with Ribonuclease T1 (RNase T1 10^−4 units/ml) and in the data set with Ribonuclease T1 (RNase T1 10^−5 units/ml) were “+”, “−” and “−”, respectively. In addition, the “Sensitivity of Substrate ODN to Ribonuclease A, relative signal intensity” value in the data set with Ribonuclease A (RNase A 10 pg/ml) was “−”; in the data set with Ribonuclease A (RNase A 100 pg/ml) it was “−”; with Ribonuclease A (RNase A 1 ng/ml) it was “+”.

“5′ Fluorescein-AgucAA-Dabcyl 3′ (NAGUCAAN; 5' fluorescein and 3' Dabcyl labels, nucleotide chemistry not given here) [SEQ ID NO:10]”: the “Sensitivity of Substrate ODN to Ribonuclease T1, relative signal intensity” value with Ribonuclease T1 (RNase T1 10^−3 units/ml) is listed as “+”; in the data set with Ribonuclease T1 (RNase T1 10^−4 units/ml) it was “−”; with Ribonuclease T1 (RNase T1 10^−5 units/ml) it was “−”. In addition, the “Sensitivity of Substrate ODN to Ribonuclease A, relative signal intensity” value with Ribonuclease A (RNase A 10 pg/ml) is listed as “−”; with Ribonuclease A (RNase A 100 pg/ml), “−”; with Ribonuclease A (RNase A 1 ng/ml), “++”.

As to “5′ Fluorescein-AgucaA-Dabcyl 3′ (NAGUCAAN; 5' fluorescein and 3' Dabcyl labels, nucleotide chemistry not given here) [SEQ ID NO:23]”, the “Sensitivity of Substrate ODN to Ribonuclease T1, relative signal intensity” value is recorded as “++” with Ribonuclease T1 (RNase T1 10^−3 units/ml), “−” with Ribonuclease T1 (RNase T1 10^−4 units/ml) and “−” with Ribonuclease T1 (RNase T1 10^−5 units/ml). For the same substance, the figures for the “Sensitivity of Substrate ODN to Ribonuclease A, relative signal intensity” value with Ribonuclease A (RNase A 10 pg/ml), with Ribonuclease A (RNase A 100 pg/ml) and with Ribonuclease A (RNase A 1 ng/ml) were “−”, “+” and “+++”, respectively.

Regarding “5′ Fluorescein-AuagA-Dabcyl 3′ (NAUAGAN; 5' fluorescein and 3' Dabcyl labels, nucleotide chemistry not given here) [SEQ ID NO:16]”, the “Sensitivity of Substrate ODN to Ribonuclease T1, relative signal intensity” value in the data set with Ribonuclease T1 (RNase T1 10^−3 units/ml) was “+++”; with Ribonuclease T1 (RNase T1 10^−4 units/ml), “+++”; in the data set with Ribonuclease T1 (RNase T1 10^−5 units/ml), “−”. Moreover, the “Sensitivity of Substrate ODN to Ribonuclease A, relative signal intensity” value is given as “−” in the data set with Ribonuclease A (RNase A 10 pg/ml), “++” with Ribonuclease A (RNase A 100 pg/ml) and “+++” in the data set with Ribonuclease A (RNase A 1 ng/ml).

Regarding “Hind III: commercial enzyme from New England Biolabs, sold as RNase-free”, the “Assay Results (RNase activity in reagent, relative signal intensity)” value in data set [1] was “−”.

For “Super Taq: commercial enzyme reagent from Ambion, sold as RNase-free”, in data set [1], the “Assay Results (RNase activity in reagent, relative signal intensity)” value is “−”.
